Reference: PubChem BioAssay AID330 (DTP/NCI, 2004)
“And” between values parts separate entries of the source, which are not always exact repeats. Equal entries are not always repeated. Inconclusive results and toxic doses are left out.

System: P388 leukemia ip, CD2F1 mice, survival T/C
Test: NCI In Vivo Anticancer Drug Screen. Data for tumor model P388 Leukemia (intraperitoneal) in CD2F1 (CDF1) mice
Details: endpoint: median survival time, higher = longer survival
Outline: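 Mice carrying the transplanted tumor received test compound or vehicle. Survival was recorded in each group, and the value is the treated-group measurement divided by that of the vehicle-treated control group.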

[1] = dose: 50.0 mg/kg/injection, schedule: Q01DX005 (ip), vehicle: saline with Tween-80
[2] = dose: 100.0 mg/kg/injection, schedule: Q01DX005 (ip), vehicle: saline with Tween-80
[3] = dose: 200.0 mg/kg/injection, schedule: Q01DX005 (ip), vehicle: saline with Tween-80
[4] = dose: 100.0 mg/kg/injection, schedule: Q04DX003 (ip), vehicle: saline with Tween-80
[5] = dose: 200.0 mg/kg/injection, schedule: Q04DX003 (ip), vehicle: saline with Tween-80
[6] = dose: 400.0 mg/kg/injection, schedule: Q04DX003 (ip), vehicle: saline with Tween-80

COC1(OC)C2(Cl)C(Cl)=C(Cl)C1(Cl)C1CCCCCC12 (centres undefined)
T/C (dose: 60.0 mg/kg/injection, schedule: Q01DX005 (ip), vehicle: saline with Tween-80): 97 % of control
T/C (dose: 120.0 mg/kg/injection, schedule: Q01DX005 (ip), vehicle: saline with Tween-80): 97 % of control
T/C (dose: 240.0 mg/kg/injection, schedule: Q01DX005 (ip), vehicle: saline with Tween-80): 101 % of control

CCCCCCC(=O)/C=C/c1ccccc1O
T/C (dose: 50.0 mg/kg/injection, schedule: Q01DX009 (ip), vehicle: saline): 108 % of control
T/C (dose: 100.0 mg/kg/injection, schedule: Q01DX009 (ip), vehicle: saline): 99 % of control
T/C (dose: 200.0 mg/kg/injection, schedule: Q01DX009 (ip), vehicle: saline): 112 % of control

CC(=O)NC(CSc1ccccc1)C(=O)O (centres undefined)
T/C [1]: 100 % of control
T/C [2]: 100 % of control
T/C [3]: 99 % of control

NC1C[S][Sn][O]C1=O (centres undefined)
T/C [4]: 111 % of control
T/C [5]: 109 % of control

COC(=O)c1ccccc1NC(=O)CN1C(=O)c2ccccc2C1=O
T/C [4]: 96 % of control
T/C [5]: 102 % of control
T/C [6]: 88 % of control

O=P1(N2CCOCC2)OC(c2ccccc2)=CCN1c1ccccc1 (centres undefined)
T/C (dose: 50.0 mg/kg/injection, schedule: Q01DX005 (ip), vehicle: Klucel (hydroxypropylcellulose) (HPC)): 103 % of control
T/C (dose: 100.0 mg/kg/injection, schedule: Q01DX005 (ip), vehicle: Klucel (hydroxypropylcellulose) (HPC)): 103 % of control
T/C (dose: 200.0 mg/kg/injection, schedule: Q01DX005 (ip), vehicle: Klucel (hydroxypropylcellulose) (HPC)): 104 % of control

OC1CCN(c2c3ccccc3nc3ccccc23)CC1
T/C (dose: 12.5 mg/kg/injection, schedule: Q04DX002 (ip), vehicle: saline): 105 % of control
T/C (dose: 25.0 mg/kg/injection, schedule: Q04DX002 (ip), vehicle: saline): 113 % of control

NP(=O)(OCCC(=O)c1ccccc1)N(CCCl)CCCl (centres undefined)
T/C (dose: 25.0 mg/kg/injection, schedule: Q04DX002 (ip), vehicle: saline with Tween-80): 163 % of control
T/C (dose: 50.0 mg/kg/injection, schedule: Q04DX002 (ip), vehicle: saline with Tween-80): 223 % of control
T/C (dose: 100.0 mg/kg/injection, schedule: Q04DX002 (ip), vehicle: saline with Tween-80): 221 % of control and 92 % of control
T/C (dose: 200.0 mg/kg/injection, schedule: Q04DX002 (ip), vehicle: saline with Tween-80): 89 % of control

c1ccc2c(c1)c1cccc3sc4cccc2c4c31
T/C [1]: 99 % of control
T/C [2]: 96 % of control
T/C [3]: 92 % of control

CC(=O)Oc1c(I)cc(Cc2nc(C)oc2C)cc1I
T/C (dose: 100.0 mg/kg/injection, schedule: Q01DX001 (ip), vehicle: saline): 99 % of control
T/C (dose: 200.0 mg/kg/injection, schedule: Q01DX001 (ip), vehicle: saline): 102 % of control
T/C (dose: 400.0 mg/kg/injection, schedule: Q01DX001 (ip), vehicle: saline): 102 % of control

CCOC(=O)CCC(=O)N(CCCNc1c2ccccc2nc2c(OC)cccc12)CCCNc1c2ccccc2nc2c(OC)cccc12
T/C (dose: 1.25 mg/kg/injection, schedule: Q01DX009 (ip), vehicle: water): 111 % of control
T/C (dose: 2.5 mg/kg/injection, schedule: Q01DX009 (ip), vehicle: water): 116 % of control
T/C (dose: 20.0 mg/kg/injection, schedule: Q01DX009 (ip), vehicle: water): 97 % of control

Oc1cc2ccccc2c(-c2c(O)c(O)cc3ccccc23)c1O
T/C (dose: 25.0 mg/kg/injection, schedule: Q01DX005 (ip), vehicle: saline with Tween-80): 111 % of control
T/C [1]: 113 % of control
T/C (dose: 100.0 mg/kg/injection, schedule: Q01DX001 (ip), vehicle: saline with Tween-80): 113 % of control and 115 % of control
T/C [2]: 112 % of control
T/C (dose: 200.0 mg/kg/injection, schedule: Q01DX001 (ip), vehicle: saline with Tween-80): 113 % of control and 121 % of control
T/C (dose: 600.0 mg/kg/injection, schedule: Q01DX001 (ip), vehicle: saline with Tween-80): 124 % of control

CC(CN(C)C)C(=O)C(=Cc1ccccc1)C(=O)C(C)CN(C)C (centres undefined)
T/C (dose: 60.0 mg/kg/injection, schedule: Q01DX005 (ip), vehicle: saline): 100 % of control
T/C (dose: 120.0 mg/kg/injection, schedule: Q01DX005 (ip), vehicle: saline): 108 % of control
T/C (dose: 240.0 mg/kg/injection, schedule: Q01DX005 (ip), vehicle: saline): 102 % of control

Cc1ccc(NC(=O)C(c2ccccc2)c2ccccc2)cc1
T/C [4]: 98 % of control
T/C [5]: 97 % of control
T/C [6]: 92 % of control
